For 3 molecules, IC50 results are on record in patent US8969568B2, “Substituted naphthyridines and their use as medicaments” (Boehringer Ingelheim Pharma GmbH & Co. KG, priority 2010, dated 2015).

Molecules are shown by their SMILES. pIC50: −log10 of the molar value. A value given as a limit tells only on which side of the number the result lay.

For this assay, the target named is Recombinant human Syk (amino acids 342-635), GST-Syk kinase fusion protein (Homo sapiens (Human), UniProt P43405). The assay can be described thus: Syk Kinase Test (Kinase Glo luminescence). Conditions: read-out: IC50-value, GST-Syk 4 nM final, ATP remaining, 60 minutes at room temperature. (Kinase-Glo measures the ATP left after a reaction by luminescence.)
Experimental: The catalytic activity of the GST-Syk kinase fusion protein was determined using the Kinase Glo® Luminescence Kinase test (Promega; V6712). In this homogeneous test the amount of ATP remaining after the kinase reaction is quantified by a luciferin-luciferase reaction using luminescence. The luminescence signal obtained correlates with the amount of ATP still present and thus correlates inversely with the activity of the protein kinase.
GST-Syk was diluted to 6.0 nM in the test buffer and 10 μl of this dilution were used in the kinase test (final concentration of Syk=4 nM in a total volume of 15 μl).
Positive controls are the reaction mixtures that contain no test substance; negative controls (blanks) are reaction mixtures that contain no kinase.
After 60 minutes, 10 μl Kinase-Glo® solution (Promega, Cat. #V6712) (heated to room temperature) were added to each well and incubation was continued for a further 15 minutes. The plates were read in a Microplate Scintillation and Luminescence Counter (Canberra Packard GmbH).
Data Evaluation and Calculation:
The output file of the “Counter” is a text file that contains the well number and measured counts in two columns. […] Based on this values the % inherent value for the measurement of each substance concentration was calculated using an “MS-Excel—VB macro”. […] The IC50 values were calculated from the % inhibition values using “GraphPadPrism” software (Version 5) (GraphPad Software Inc.).
As usually defined, the pIC50 is the negative decadic logarithm of the IC50, by convention in mol/L. With `COc1cc(-c2cc3ncccc3c(O[C@H](C)[C@H]3CNC(=O)C3)n2)cc(OC)c1OC` [Example 35, (R)-4-[(R)-1-[7-(3,4,5-Trimethoxy-phenyl)-[1,6]naphthyridin-5-yloxy]-ethyl]-pyrrolidin-2-one], the pIC50 is 9.70. The same measure for `COc1cc(-c2cc3ncccc3c(OC[C@H]3CNC(=O)C3)n2)cc(OC)c1OC1CCOCC1` [Example 44]: 7.79. Regarding `COc1cc(-c2cc3ncccc3c(O[C@H](C)[C@H]3CNC(=O)C3)n2)ccc1OC1CCOCC1` [Example 63], the pIC50 is above 10.00.
